# Legend:
# Type in all cases: in vivo
# [1] = test system: blackgrass (Alopecurus myosuroides); assay: Test A1 preemergence, blackgrass
# In short: (§1)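 Both timings started from seed in a loam-sand blend. Preemergence pots got a directed soil application immediately; postemergence pots were sprayed when seedlings had one or two leaves and stood 2–10 cm. Each compound was prepared in a non-phytotoxic solvent plus surfactant.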
# corn (Zea mays) [2] = assay: Test A1 preemergence, corn
# In short: (§2)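 Postemergence species (ragweed, Palmer pigweed, wild oat) were sprayed at one- to two-leaf stage, 2 to 10 cm tall. Corn was treated preemergence by directed soil spray. Both used a loam soil/sand blend and compounds in a non-phytotoxic solvent mixture with surfactant.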
# [3] = test system: Foxtail, Giant (giant foxtail, Setaria faberi); assay: Test A1 preemergence, Foxtail, Giant
# In short: as §1
# [4] = test system: goosegrass (Eleusine indica); assay: Test A1 preemergence, goosegrass
# In short: as §1
# kochia (Bassia scoparia) [5] = assay: Test A1 preemergence, kochia
# In short: as §1
# [6] = test system: Oat, Wild (wild oat, Avena fatua); assay: Test A1 preemergence, Oat, Wild
# In short: as §1
# [7] = test system: Pigweed, Palmer (palmer amaranth, palmer pigweed, Amaranthus palmeri); assay: Test A1 preemergence, Pigweed, Palmer
# In short: as §1
# [8] = test system: ragweed (common ragweed, Ambrosia artemisiifolia); assay: Test A1 preemergence, ragweed
# In short: as §1
# [9] = test system: Ryegrass, Italian (Italian ryegrass, Lolium multiflorum); assay: Test A1 preemergence, Ryegrass, Italian
# In short: as §1
# soybean (Glycine max) [10] = assay: Test A1 preemergence, soybean
# In short: as §1
# [11] = test system: wheat (Triticum aestivum); assay: Test A1 preemergence, wheat
# In short: as §1
# [12] = test system: blackgrass (Alopecurus myosuroides); assay: Test A1 postemergence, blackgrass; conditions: Postemergence, 0 to 100 scale (0 no effect, 100 complete control)
# In short: (§3)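 Pre: seeds in loam/sand blend, directed soil spray. Post: potted plants, same soil, 2–10 cm, 1–2 leaf stage. Chemicals in non-phytotoxic solvent + surfactant for both.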
# corn (Zea mays) [13] = assay: Test A1 postemergence, corn; conditions: Postemergence
# In short: as §1
# [14] = test system: Foxtail, Giant (giant foxtail, Setaria faberi); assay: Test A1 postemergence, Foxtail, Giant; conditions: Postemergence
# In short: as §3
# [15] = test system: goosegrass (Eleusine indica); assay: Test A1 postemergence, goosegrass; conditions: Postemergence
# In short: as §3
# kochia (Bassia scoparia) [16] = assay: Test A1 postemergence, kochia; conditions: Postemergence
# In short: as §3
# [17] = test system: Oat, Wild (wild oat, Avena fatua); assay: Test A1 postemergence, Oat, Wild; conditions: Postemergence
# In short: as §2
# [18] = test system: Pigweed, Palmer (palmer amaranth, palmer pigweed, Amaranthus palmeri); assay: Test A1 postemergence, Pigweed, Palmer; conditions: Postemergence
# In short: as §2
# [19] = test system: ragweed (common ragweed, Ambrosia artemisiifolia); assay: Test A1 postemergence, ragweed; conditions: Postemergence
# In short: as §2
# [20] = test system: Ryegrass, Italian (Italian ryegrass, Lolium multiflorum); assay: Test A1 postemergence, Ryegrass, Italian; conditions: Postemergence
# In short: as §3
# soybean (Glycine max) [21] = assay: Test A1 postemergence, soybean; conditions: Postemergence
# In short: as §3
# [22] = test system: wheat (Triticum aestivum); assay: Test A1 postemergence, wheat; conditions: Postemergence
# In short: as §3
# [23] = test system: galium (catchweed bedstraw, Galium aparine); assay: Test A1 postemergence, galium; conditions: Postemergence
# In short: as §3
# [24] = test system: horseweed (Erigeron canadensis); assay: Test A1 postemergence, horseweed; conditions: Postemergence
# Source text: Seeds of plant species selected from, blackgrass (Alopecurus myosuroides), corn (Zea mays), Foxtail, Giant (giant foxtail, Setaria faberi), goosegrass (Eleusine indica), kochia (Bassia scoparia), Oat, Wild (wild oat, Avena fatua), Pigweed, Palmer (palmer amaranth, palmer pigweed, Amaranthus palmeri), ragweed (common ragweed, Ambrosia artemisiifolia), Ryegrass, Italian (Italian ryegrass, Lolium multiflorum), soybean (Glycine max), and wheat (Triticum aestivum) were planted into a blend of loam soil and sand and treated preemergence with a directed soil spray using test chemicals formulated in a non-phytotoxic solvent mixture which included a surfactant. At the same time, plants selected from these crop and weed species and also galium (catchweed bedstraw, Galium aparine) and horseweed (Erigeron canadensis) were planted in pots containing the same blend of loam soil and sand and treated with postemergence applications of test chemicals formulated in the same manner. Plants ranged in height from 2 to 10 cm and were in the one- to two-leaf stage for the postemergence treatment. […] A dash (-) response means no test result.
# [25] = test system: barnyardgrass (Echinochloa crus-galli); assay: Test B1 flooded paddy test, barnyardgrass; conditions: 250 g ai/ha, Flood, applied to paddy water, 2-leaf stage, visually evaluated after 10 to 14 days
# Source text: (§4) A dash (-) response means no test result.
# [26] = test system: ducksalad (Heteranthera limosa); assay: Test B1 flooded paddy test, ducksalad; conditions: 250 g ai/ha, Flood, applied to paddy water, 2-leaf stage, visually evaluated after 10 to 14 days
# Source text: as §4
# rice (Oryza sativa) = assay: Test B1 flooded paddy test, rice; conditions: 250 g ai/ha, Flood, applied to paddy water, 2-leaf stage, visually evaluated after 10 to 14 days
# Source text: as §4
# [27] = 31 g ai/ha, 0 to 100 scale (0 no effect, 100 complete control)
# [28] = 125 g ai/ha, 0 to 100 scale, 0 no effect, 100 complete control
# [29] = 31 g ai/ha, 0 to 100 scale (0 no effect, 100 complete control), 10 days
smiles,measurement,setting,value
CCOC(=O)N(c1cc(C(=O)N2CCC(F)(F)CC2)c(C)cc1C)S(=O)(=O)C(F)(F)F [Compound 351],"Plant response rating, Blackgrass",[1]; [27],10
same,"Plant response rating, Blackgrass",[1]; [28],50
same,"Plant response rating, Corn",corn (Zea mays) [2]; [27],0
same,"Plant response rating, Corn",corn (Zea mays) [2]; [28],0
same,"Plant response rating, Foxtail, Giant",[3]; [27],30
same,"Plant response rating, Foxtail, Giant",[3]; [28],100
same,"Plant response rating, Goosegrass",[4]; [27],40
same,"Plant response rating, Goosegrass",[4]; [28],100
same,"Plant response rating, Kochia",kochia (Bassia scoparia) [5]; [27],20
same,"Plant response rating, Kochia",kochia (Bassia scoparia) [5]; [28],90
same,"Plant response rating, Oat, Wild",[6]; [27],10
same,"Plant response rating, Oat, Wild",[6]; [28],30
same,"Plant response rating, Pigweed, Palmer",[7]; [27],80
same,"Plant response rating, Pigweed, Palmer",[7]; [28],90
same,"Plant response rating, Ragweed",[8]; [27],50
same,"Plant response rating, Ragweed",[8]; [28],90
same,"Plant response rating, Ryegrass, Italian",[9]; [27],40
same,"Plant response rating, Ryegrass, Italian",[9]; [28],90
same,"Plant response rating, Soybean",soybean (Glycine max) [10]; [27],20
same,"Plant response rating, Soybean",soybean (Glycine max) [10]; [28],30
same,"Plant response rating, Wheat",[11]; [27],10
same,"Plant response rating, Wheat",[11]; [28],50
same,"Plant response rating, Blackgrass","[12]; 31 g ai/ha, 10 days",0
same,"Plant response rating, Blackgrass",[12]; 125 g ai/ha,80
same,"Plant response rating, Corn",corn (Zea mays) [13]; [29],0
same,"Plant response rating, Corn","corn (Zea mays) [13]; 125 g ai/ha, 0 to 100 scale",70
same,"Plant response rating, Foxtail, Giant",[14]; [29],30
same,"Plant response rating, Foxtail, Giant","[14]; 125 g ai/ha, 0 to 100 scale",50
same,"Plant response rating, Goosegrass",[15]; [29],40
same,"Plant response rating, Goosegrass","[15]; 125 g ai/ha, 0 to 100 scale",90
same,"Plant response rating, Kochia",kochia (Bassia scoparia) [16]; [29],10
same,"Plant response rating, Kochia","kochia (Bassia scoparia) [16]; 125 g ai/ha, 0 to 100 scale",30
same,"Plant response rating, Oat, Wild",[17]; [29],0
same,"Plant response rating, Oat, Wild","[17]; 125 g ai/ha, 0 to 100 scale",10
same,"Plant response rating, Pigweed, Palmer",[18]; [29],10
same,"Plant response rating, Pigweed, Palmer","[18]; 125 g ai/ha, 0 to 100 scale",20
same,"Plant response rating, Ragweed",[19]; [29],70
same,"Plant response rating, Ragweed","[19]; 125 g ai/ha, 0 to 100 scale",90
same,"Plant response rating, Ryegrass, Italian",[20]; [29],20
same,"Plant response rating, Ryegrass, Italian","[20]; 125 g ai/ha, 0 to 100 scale",50
same,"Plant response rating, Soybean",soybean (Glycine max) [21]; [29],30
same,"Plant response rating, Soybean","soybean (Glycine max) [21]; 125 g ai/ha, 0 to 100 scale",50
same,"Plant response rating, Wheat",[22]; [29],0
same,"Plant response rating, Wheat","[22]; 125 g ai/ha, 0 to 100 scale",60
same,"Plant response rating, Galium",[23]; [29],80
same,"Plant response rating, Galium","[23]; 125 g ai/ha, 0 to 100 scale",100
same,"Plant response rating, Horseweed",[24]; [29],100
same,"Plant response rating, Horseweed","[24]; 125 g ai/ha, 0 to 100 scale",90
same,"Plant response rating, Barnyardgrass (0 to 100 scale, 0 is no effect, 100 is complete control)",[25],90
same,"Plant response rating, Ducksalad (0 to 100 scale, 0 is no effect, 100 is complete control)",[26],70
same,"Plant response rating, Rice (0 to 100 scale, 0 is no effect, 100 is complete control)",rice (Oryza sativa),50
Cc1cc(C)c(N(COC(=O)OC(C)(C)C)S(=O)(=O)C(F)(F)F)cc1C1=NOC2CCCC12 (stereo not drawn) [Compound 316],"Plant response rating, Blackgrass",[1]; [27],0
same,"Plant response rating, Blackgrass",[1]; [28],0
same,"Plant response rating, Corn",corn (Zea mays) [2]; [27],0
same,"Plant response rating, Corn",corn (Zea mays) [2]; [28],0
same,"Plant response rating, Foxtail, Giant",[3]; [27],0
same,"Plant response rating, Foxtail, Giant",[3]; [28],30
same,"Plant response rating, Goosegrass",[4]; [27],40
same,"Plant response rating, Goosegrass",[4]; [28],90
same,"Plant response rating, Kochia",kochia (Bassia scoparia) [5]; [27],0
same,"Plant response rating, Kochia",kochia (Bassia scoparia) [5]; [28],50
same,"Plant response rating, Oat, Wild",[6]; [27],0
same,"Plant response rating, Oat, Wild",[6]; [28],0
same,"Plant response rating, Pigweed, Palmer",[7]; [27],40
same,"Plant response rating, Pigweed, Palmer",[7]; [28],50
same,"Plant response rating, Ragweed",[8]; [27],0
same,"Plant response rating, Ragweed",[8]; [28],20
same,"Plant response rating, Ryegrass, Italian",[9]; [27],30
same,"Plant response rating, Ryegrass, Italian",[9]; [28],50
same,"Plant response rating, Soybean",soybean (Glycine max) [10]; [27],0
same,"Plant response rating, Soybean",soybean (Glycine max) [10]; [28],0
same,"Plant response rating, Wheat",[11]; [27],0
same,"Plant response rating, Wheat",[11]; [28],0
same,"Plant response rating, Blackgrass","[12]; 31 g ai/ha, 10 days",0
same,"Plant response rating, Blackgrass",[12]; 125 g ai/ha,0
same,"Plant response rating, Corn",corn (Zea mays) [13]; [29],0
same,"Plant response rating, Corn","corn (Zea mays) [13]; 125 g ai/ha, 0 to 100 scale",0
same,"Plant response rating, Foxtail, Giant",[14]; [29],0
same,"Plant response rating, Foxtail, Giant","[14]; 125 g ai/ha, 0 to 100 scale",0
same,"Plant response rating, Goosegrass",[15]; [29],0
same,"Plant response rating, Goosegrass","[15]; 125 g ai/ha, 0 to 100 scale",90
same,"Plant response rating, Kochia",kochia (Bassia scoparia) [16]; [29],30
same,"Plant response rating, Kochia","kochia (Bassia scoparia) [16]; 125 g ai/ha, 0 to 100 scale",70
same,"Plant response rating, Oat, Wild",[17]; [29],0
same,"Plant response rating, Oat, Wild","[17]; 125 g ai/ha, 0 to 100 scale",10
same,"Plant response rating, Pigweed, Palmer",[18]; [29],30
same,"Plant response rating, Pigweed, Palmer","[18]; 125 g ai/ha, 0 to 100 scale",70
same,"Plant response rating, Ragweed",[19]; [29],0
same,"Plant response rating, Ragweed","[19]; 125 g ai/ha, 0 to 100 scale",50
same,"Plant response rating, Ryegrass, Italian",[20]; [29],0
same,"Plant response rating, Ryegrass, Italian","[20]; 125 g ai/ha, 0 to 100 scale",30
same,"Plant response rating, Soybean",soybean (Glycine max) [21]; [29],10
same,"Plant response rating, Soybean","soybean (Glycine max) [21]; 125 g ai/ha, 0 to 100 scale",50
same,"Plant response rating, Wheat",[22]; [29],10
same,"Plant response rating, Wheat","[22]; 125 g ai/ha, 0 to 100 scale",40
same,"Plant response rating, Galium",[23]; [29],40
same,"Plant response rating, Galium","[23]; 125 g ai/ha, 0 to 100 scale",50
same,"Plant response rating, Horseweed",[24]; [29],30
same,"Plant response rating, Horseweed","[24]; 125 g ai/ha, 0 to 100 scale",40
same,"Plant response rating, Barnyardgrass (0 to 100 scale, 0 is no effect, 100 is complete control)",[25],95
same,"Plant response rating, Ducksalad (0 to 100 scale, 0 is no effect, 100 is complete control)",[26],90
same,"Plant response rating, Rice (0 to 100 scale, 0 is no effect, 100 is complete control)",rice (Oryza sativa),0

# — US20230278972A1, “SUBSTITUTED HALOALKYL SULFONANILIDE HERBICIDES” (FMC Corporation, priority 2020, published 2023)
